# Measured values reported in patent publication US11401516B2, “Channel modulators” (AUCKLAND UNISERVICES LIMITED, priority 2014, dated 2022).
# System: Cx43 hemichannel and pannexin channel mediated ATP release from hCMVEC cells
# Assay: In vitro ischaemia injury-reperfusion ATP assay
# Type: cell-based, human
# Settings: 2-hour injury then 2-hour reperfusion; 100 μM CBX, 100 μM Peptide5, 1 mM Probenecid, 10 μM Tonabersat
# Description: Using an in vitro ischemia injury model, the Cx43 hemichannel and pannexin channel mediated ATP release was differentiated using the connexin hemichannel blocking mimetic peptide5 at 100 μM concentration (S. J. O'Carroll, et al., Cell communication & adhesion 15, 27 (May, 2008)) and 1 mM Probenecid (W. R. Silverman et al., The Journal of biological chemistry 284, 18143 (Jul. 3, 2009)).
# Human cerebral microvascular endothelial cells (hCMVEC) were trypsinised (TrypLE Express, Life technologies) and plated at a density of 0.025×10^6 cells per well in a collagen-coated 12-well plate (1 μg/cm2) a day prior to the experiment. Cells were incubated in culture medium overnight. Hypoxic, acidic, ion-shifted Ringer injury solution that mimics ionic concentrations and acid-base shifts of the interstitial space in hypoxic-ischemic brains (A. Bondarenko, et al., Glia 34, 143 (Apr. 15, 2001)) was used to trigger hemichannel opening. […] ATP concentration in the samples was determined using a Luciferin/luciferase bioluminescence reaction (ATP Determination Kit, Molecular Probes) and detected using a luminescence plate reader (VICTOR X, Perkin Elmer #2030-0010). Standard curves were generated in each experiment from an ATP standard (500 nM) to quantify the concentration of ATP in the test samples. […]
smiles,measurement,value
"CC(=O)c1ccc2c(c1)[C@H](NC(=O)c1ccc(F)c(Cl)c1)[C@H](O)C(C)(C)O2 [Tonabersat, N-[(3S,4S)-6-acetyl-3-hydroxy-2,2-dimethyl-3,4-dihydrochromen-4-yl]-3-chloro-4-fluorobenzamide]","ATP release, percentage of the injury-reperfusion (IR) control",68.9±6.9%
